Measured values: US20100222269A1, “IMPROVED DERIVATIVES OF AMYLIN” (priority 2007, published 2010)
Read-outs that look alike come from different tables or passages of the source. Starred links: 1 amine or outer side, 2 acyl side, 3 side chain; linkers in the order of their positions; H or OH if unused. Positions of bridges follow the written chain, without caps; N, C: chain ends. Non-standard residues stand in square brackets, D forms with d. Residues, ends and D or L forms follow the SMILES beside them. Groups on a side chain read outwards from the residue. *: point of attachment. C20 diacid = O=C(O)CCCCCCCCCCCCCCCCCCC(=O)*; C18 diacid = O=C(O)CCCCCCCCCCCCCCCCC(=O)*; γGlu = O=C(O)[C@H](CCC(=O)[*:2])N[*:1]; AEEA = NCCOCCOCC(=O)O

Target: T1, Amylin 3(a) receptor (human calcitonin receptor (CTa) with RAMP-3) (Homo sapiens, UniProt O60896+P30988)
T1 construct: expressed in transfected cells; host or cells: BHK570 (baby hamster kidney) cells, stably transfected, with CRE-luciferase reporter
T1 sequence (O60896 24-148): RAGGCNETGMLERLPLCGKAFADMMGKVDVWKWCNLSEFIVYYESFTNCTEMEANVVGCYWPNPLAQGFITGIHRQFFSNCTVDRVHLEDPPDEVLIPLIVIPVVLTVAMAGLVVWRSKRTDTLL
T1 sequence (P30988 25-474): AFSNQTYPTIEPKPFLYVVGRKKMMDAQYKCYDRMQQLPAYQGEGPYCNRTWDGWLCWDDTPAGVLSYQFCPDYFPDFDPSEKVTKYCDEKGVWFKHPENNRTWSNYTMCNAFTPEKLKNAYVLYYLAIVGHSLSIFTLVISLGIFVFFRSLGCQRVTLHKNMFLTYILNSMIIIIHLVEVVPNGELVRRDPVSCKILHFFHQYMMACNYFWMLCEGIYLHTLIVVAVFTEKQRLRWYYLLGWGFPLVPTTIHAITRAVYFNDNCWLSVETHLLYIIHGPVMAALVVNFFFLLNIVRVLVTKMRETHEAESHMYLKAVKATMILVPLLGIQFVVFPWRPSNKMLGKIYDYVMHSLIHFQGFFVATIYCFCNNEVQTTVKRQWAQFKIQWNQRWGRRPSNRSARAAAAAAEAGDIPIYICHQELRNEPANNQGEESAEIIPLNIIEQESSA
Test: Amylin luciferase assay (CRE-luciferase reporter in BHK Amylin 3(a)//CRE-luc cells)
Assay type: cell-based
Text: It has previously been published (Poyner D R et al 2002, Pharmacological Reviews 54(2) 233-246) that activation of Amylin receptors (coexpression of Calcitonin receptor and receptor activity modifying peptides RAMPs) by Amylin leads to an increase in the intracellular concentration of cAMP. Consequently, transcription is activated at promotors containing multiple copies of the cAMP response element (CRE). It is thus possible to measure Amylin activity by use of a CRE luciferase reporter gene introduced into BHK cells also expressing an Amylin receptor.
2. Construction of an Amylin 3(a)/CRE-luc Cell Line
A BHK570 cell line stably transfected with the human calcitonin receptor (CTa) and a CRE-responsive luciferase reportergene. The cell line was further transfected with RAMP-3, using standard methods. This turns the Calcitonin receptor into an Amylin 3(a) receptor. Methotrexate, Neomycin, and Hygromycin are selection markers for luciferase, the Calcitonin receptor, and RAMP-3, respectively.
3. Amylin Luciferase Assay
To perform activity assays, BHK Amylin 3(a)//CRE-luc cells were seeded in white 96 well culture plates at a density of about 20.000 cells/well. The cells were in 100 μl growth medium (DMEM with 10% FBS, 1% Pen/Strep, 1 mM Na-pyruvate, 250 nM Methotrexate, 500 μg/ml Neomycin, and 400 μg/ml Hygromycin). After incubation overnight at 37° C. and 5% CO2, the growth medium was replaced by 50 μl/well assay medium (DMEM (without phenol red), Glumamax™, 10% FBS, and 10 mM Hepes, pH 7,4). Further, 50 μl/well of standard or sample in assay buffer were added. After 4 hours incubation at 37° C. and 5% CO2, the assay medium with standard or sample were removed and replaced by 100 μl/well PBS. Further, 100 μl/well LucLite™ was added. The plates were sealed and incubated at room temperature for 30 minutes. Finally, luminescence was measured on a TopCounter (Packard) in SPC (single photon counting) mode.

[1] = BHK570 cells with human calcitonin receptor (CTa), RAMP-3 and CRE-luciferase reporter, 4 hours incubation, read-out: Potency luciferase assay

| Compound | EC50 [1] | EC50 |
| --- | --- | --- |
| CC[C@H](C)[C@H](NC(=O)[C@H](CCCCNC(=O)COCCOCCNC(=O)COCCOCCNC(=O)CCCCCCCCCCCCCCCCC(=O)O)NC(=O)CNC(=O)[C@H](Cc1ccccc1)NC(=O)[C@H](CC(N)=O)NC(=O)[C@H](CC(N)=O)NC(=O)[C@H](CO)NC(=O)[C@H](CO)NC(=O)[C@H](CCCNC(=N)N)NC(=O)[C@@H](NC(=O)[C@H](CC(C)C)NC(=O)[C@H](Cc1ccccc1)NC(=O)[C@H](CC(N)=O)NC(=O)[C@H](C)NC(=O)[C@H](CC(C)C)NC(=O)[C@H](CCCNC(=N)N)NC(=O)[C@H](CCC(N)=O)NC(=O)[C@@H](NC(=O)[C@H](C)NC(=O)[C@@H]1CSSC[C@H](NC(=O)[C@@H](N)CCCCN)C(=O)N[C@@H](CC(N)=O)C(=O)N[C@@H]([C@@H](C)O)C(=O)N[C@@H](C)C(=O)N[C@@H]([C@@H](C)O)C(=O)N1)[C@@H](C)O)C(C)C)C(=O)N[C@@H](CC(C)C)C(=O)N1CCC[C@H]1C(=O)N1CCC[C@H]1C(=O)N[C@H](C(=O)N[C@@H](CC(N)=O)C(=O)N[C@H](C(=O)NCC(=O)N[C@@H](CO)C(=O)N[C@@H](CC(N)=O)C(=O)N[C@H](C(=O)N[C@@H](Cc1ccc(O)cc1)C(N)=O)[C@@H](C)O)C(C)C)[C@@H](C)O [Example 9, N-epsilon25-(2-{2-[2-(2-{2-[2-(17-carboxyheptadecanoylamino)ethoxy]ethoxy}acetylamino)ethoxy]ethoxy}acetyl)-[Arg18,Lys25]-pramlintide (1-37)] (H-KCNTATCATQRLANFLVRSSNNFGK([AEEA-AEEA-C18 diacid])ILPPTNVGSNTY-NH2; disulfide 2-7) | 0.04 nM | – |
| CC[C@H](C)[C@H](NC(=O)[C@@H]1CCCN1C(=O)CNC(=O)[C@H](Cc1ccccc1)NC(=O)[C@H](CC(N)=O)NC(=O)[C@H](CC(N)=O)NC(=O)[C@H](CO)NC(=O)[C@H](CO)NC(=O)[C@H](CCCNC(=N)N)NC(=O)[C@H](C)NC(=O)[C@H](CC(C)C)NC(=O)[C@H](Cc1ccccc1)NC(=O)[C@H](CC(N)=O)NC(=O)[C@H](C)NC(=O)[C@H](CC(C)C)NC(=O)[C@H](CCCNC(=N)N)NC(=O)[C@H](CCC(N)=O)NC(=O)[C@@H](NC(=O)[C@H](C)NC(=O)[C@@H]1CSSC[C@H](NC(=O)[C@@H](N)CCCCNC(=O)CC[C@H](NC(=O)CCCCCCCCCCCCCCCCC(=O)O)C(=O)O)C(=O)NCC(=O)N[C@@H]([C@@H](C)O)C(=O)N[C@@H](C)C(=O)N[C@@H]([C@@H](C)O)C(=O)N1)[C@@H](C)O)C(=O)N[C@@H](CC(C)C)C(=O)N[C@@H](CO)C(=O)N1CCC[C@H]1C(=O)N[C@H](C(=O)N[C@@H](CC(N)=O)C(=O)N[C@H](C(=O)NCC(=O)N[C@@H](CO)C(=O)N[C@@H](CC(N)=O)C(=O)N[C@H](C(=O)N[C@@H](Cc1ccc(O)cc1)C(N)=O)[C@@H](C)O)C(C)C)[C@@H](C)O [Example 23, N-epsilon1-[(S)-4-carboxy-4-(17-carboxyheptadecanoylamino)butyryl]-[Gly3,Ala17,Arg18,Ser28]-pramlintide (1-37)] (H-K([γGlu-C18 diacid])CGTATCATQRLANFLARSSNNFGPILSPTNVGSNTY-NH2; disulfide 2-7) | 0.07 nM | – |
| CC(C)C[C@H](NC(=O)[C@H](CC(N)=O)NC(=O)[C@H](CCC(N)=O)NC(=O)[C@H](CO)NC(=O)[C@H](CO)NC(=O)[C@H](CCCNC(=N)N)NC(=O)[C@@H](NC(=O)[C@H](CC(C)C)NC(=O)[C@H](Cc1ccccc1)NC(=O)[C@H](CC(N)=O)NC(=O)[C@H](C)NC(=O)[C@H](CC(C)C)NC(=O)[C@H](CCCNC(=N)N)NC(=O)[C@H](CCC(N)=O)NC(=O)[C@@H](NC(=O)[C@H](C)NC(=O)[C@@H]1CSSC[C@H](NC(=O)[C@H](CCC(=O)O)NC(=O)[C@H](CCCNC(=N)N)NC(=O)[C@H](CCC(=O)O)NC(=O)[C@H](CCC(=O)O)NC(=O)CCCCCCCCCCCCCCCCCCC(=O)O)C(=O)N[C@@H](CCC(N)=O)C(=O)N[C@@H]([C@@H](C)O)C(=O)N[C@@H](C)C(=O)N[C@@H]([C@@H](C)O)C(=O)N1)[C@@H](C)O)C(C)C)C(=O)NCC(=O)N1CCC[C@H]1C(=O)N[C@H](C(=O)N[C@@H](CC(C)C)C(=O)N1CCC[C@H]1C(=O)N1CCC[C@H]1C(=O)N[C@H](C(=O)N[C@@H](CC(N)=O)C(=O)N[C@H](C(=O)NCC(=O)N[C@@H](CO)C(=O)N[C@@H](CC(N)=O)C(=O)N[C@H](C(=O)N[C@@H](Cc1ccc(O)cc1)C(N)=O)[C@@H](C)O)C(C)C)[C@@H](C)O)C(C)C [Example 35, N-alpha-(19-carboxynonadecanoyl)-Glu-Glu-Arg-[Glu1,Gln3,Arg18,Gln21,Leu23,Val26]-pramlintide (1-37)] ({C20 diacid}-EERECQTATCATQRLANFLVRSSQNLGPVLPPTNVGSNTY-NH2; disulfide 5-10; C-terminus assumed) | – | 0.09 nM |
| CC[C@H](C)[C@H](NC(=O)[C@@H]1CCCN1C(=O)CNC(=O)[C@H](Cc1ccccc1)NC(=O)[C@H](CC(N)=O)NC(=O)[C@H](CC(N)=O)NC(=O)[C@H](CO)NC(=O)[C@H](CO)NC(=O)[C@H](Cc1c[nH]cn1)NC(=O)[C@@H](NC(=O)[C@H](CC(C)C)NC(=O)[C@H](Cc1ccccc1)NC(=O)[C@H](CC(N)=O)NC(=O)[C@H](C)NC(=O)[C@H](CC(C)C)NC(=O)[C@H](CCCNC(=N)N)NC(=O)[C@H](CCC(N)=O)NC(=O)[C@@H](NC(=O)[C@H](C)NC(=O)[C@@H]1CSSC[C@H](NC(=O)[C@H](CCC(=O)O)NC(=O)[C@H](CCCNC(=N)N)NC(=O)[C@H](CCC(=O)O)NC(=O)[C@H](CCC(=O)O)NC(=O)CCCCCCCCCCCCCCCCCCC(=O)O)C(=O)N[C@@H](CC(N)=O)C(=O)N[C@@H]([C@@H](C)O)C(=O)N[C@@H](C)C(=O)N[C@@H]([C@@H](C)O)C(=O)N1)[C@@H](C)O)C(C)C)C(=O)N[C@@H](CC(C)C)C(=O)N1CCC[C@H]1C(=O)N1CCC[C@H]1C(=O)N[C@H](C(=O)N[C@@H](CC(N)=O)C(=O)N[C@H](C(=O)NCC(=O)N[C@@H](CO)C(=O)N[C@@H](CC(N)=O)C(=O)N[C@H](C(=O)N[C@@H](Cc1ccc(O)cc1)C(N)=O)[C@@H](C)O)C(C)C)[C@@H](C)O [Example 25, N-alpha-(19-carboxynonadecanoyl)-Glu-Glu-Arg-[Glu1]-pramlintide (1-37)] ({C20 diacid}-EERECNTATCATQRLANFLVHSSNNFGPILPPTNVGSNTY-NH2; disulfide 5-10; C-terminus assumed) | 0.08 nM | – |
| CC[C@H](C)[C@H](NC(=O)[C@@H]1CCCN1C(=O)CNC(=O)[C@H](Cc1ccccc1)NC(=O)[C@H](CC(N)=O)NC(=O)[C@H](CC(N)=O)NC(=O)[C@H](CO)NC(=O)[C@H](CO)NC(=O)[C@H](Cc1c[nH]cn1)NC(=O)[C@@H](NC(=O)[C@H](CC(C)C)NC(=O)[C@H](Cc1ccccc1)NC(=O)[C@H](CC(N)=O)NC(=O)[C@H](C)NC(=O)[C@H](CC(C)C)NC(=O)[C@H](CCCNC(=N)N)NC(=O)[C@H](CCC(N)=O)NC(=O)[C@@H](NC(=O)[C@H](C)NC(=O)[C@@H]1CSSC[C@H](NC(=O)[C@H](CCCCN)NC(=O)[C@H](CCCCN)NC(=O)CC[C@H](NC(=O)CCCCCCCCCCCCCCCCCCC(=O)O)C(=O)O)C(=O)N[C@@H](CC(N)=O)C(=O)N[C@@H]([C@@H](C)O)C(=O)N[C@@H](C)C(=O)N[C@@H]([C@@H](C)O)C(=O)N1)[C@@H](C)O)C(C)C)C(=O)N[C@@H](CC(C)C)C(=O)N1CCC[C@H]1C(=O)N1CCC[C@H]1C(=O)N[C@H](C(=O)N[C@@H](CC(N)=O)C(=O)N[C@H](C(=O)NCC(=O)N[C@@H](CO)C(=O)N[C@@H](CC(N)=O)C(=O)N[C@H](C(=O)N[C@@H](Cc1ccc(O)cc1)C(N)=O)[C@@H](C)O)C(C)C)[C@@H](C)O [Example 48, N-alpha-[(S)-4-carboxy-4-(19-carboxynonadecanoylamino)butyryl]-Lys-pramlintide (1-37)] ({C20 diacid-γGlu}-KKCNTATCATQRLANFLVHSSNNFGPILPPTNVGSNTY-NH2; disulfide 3-8) | 0.1 nM | – |
| {C20 diacid}-EER[AEEA]ECNTATCATQRLANFLVHSSNNFGPILPPTNVGSNTY-NH2 (disulfide 6-11; C-terminus assumed) [Example 44, N-alpha-(2-{2-[2-((S)-2-{(S)-4-carboxy-2-[(S)-4-carboxy-2-(19-carboxynonadecanoylamino)butyrylamino]butyrylamino}-5-guanidinopentanoylamino)ethoxy]ethoxy}acetyl)-[Glu1]-pramlintide (1-37)] | 0.4 nM | – |
